In one data set the test system is H9C2 cells. Briefly: cAMP accumulation in H9C2 cells. Format: cell-based. Particulars: 5 μM ISO, 3 minutes, 10 μM drug. The text has this: […] Fludarabine ((+)-2-Fluoro-9-(5-O-phosphono-β-D-arabinofuranosyl)-9H-purin-6-amine) and Cladribine (2-chloro-2′-deoxyadenosine) are anti-cancer drugs, Adefovir (Bis(2,2-dimethylpropanoyloxymethyl)[2-(6-amino-9H-purin-9-yl)ethoxymethyl]phosphonate) and Zidovudine are anti-HIV drugs. Zidovudine-TP is a metabolite of zidovudine which inhibits virus replication. TP; triphosphate. 3-Deazaadenosine, Formycin A (7-Amino-3-(β-D-ribofuranosyl)-1H-pyrazolo[4,3-d]pyrimidine), 2-Far (2-Fluoroadenosine), formycin A ((2S,3R,4S,5R)-2-(7-amino-2H-pyrazolo[5,4-e]pyramidin-3-yl-5-(hydroxymeth-yl)oxolane-3,4-diol), 2-FD (2-Fluoro-2′-deoxyadenosine) and 2′5′ ddAdo (2′5′-dideoxyadenosine) are experimental drugs.
(§1) Mice were anesthetized with 2.5% tribromoethanol (0.010 to 0.015 mL per gram of body weight) injected intraperitoneally, and echocardiography was performed with ultrasonography (ACUSON Sequoia C256, Siemens Medical Solutions, Malvern, Pa.). For acute injection of isoproterenol, forskolin and milrinon, a PE-10 catheter was inserted into the right jugular vein, and drugs were injected at the rate of 1 μl/s. cAMP accumulation assay in H9C2 cells, a cardiac myoblast cell line, was examined as previously described.
Background: cAMP levels reflect the balance of adenylyl cyclase and phosphodiesterase activity.

The test system of a further data set is cardiac myocytes. As to the kind of experiment: ISO-induced apoptosis in cultured cardiac myocytes (DNA fragmentation ELISA). Format: cell-based. The following applies: 100 μM ISO, 48 h. In general terms: ELISA stands for enzyme-linked immunosorbent assay.
A further data set concerns AC6. Briefly: Forskolin-stimulated cAMP production in heart membrane preparations from AC6Tg. Format: biochemical, mouse. Particulars: forskolin 50 μM.
In data set [1] the test system is C57Bl/6 mice, chronic ISO infusion. As to the kind of experiment: Chronic ISO infusion heart failure model. Format: in vivo, mouse.
From the text: ISO with or without AC5 inhibitors were chronically infused with osmotic mini-pump implanted subcutaneously at indicated doses for 1 week in c57Bl/6 mice. Mice were then subjected to echocardiography (a) and the hearts were removed and subjected to pathological examinations such as myocardial apoptosis (b) and fibrosis (c). n=4-8.
In C57Bl/6 mice, ISO with or without AC5 inhibitors or metoprolol were chronically infused with an osmotic mini-pump at the indicated doses for 1 week. Mice were then subjected to echocardiography (a) and heart tissue were subjected to a myocardial apoptosis assay (b). *, p<0.01 vs vehicle. #, p<0.05 vs vehicle. .dagger., p<0.01 vs ISO. .dagger-dbl., p<0.05 vs ISO. n=4-15. […] Comparisons between multiple groups were made using ANOVA with post-hoc tests.
Tenofovir diphosphate (PMPA-PP), zidovudine monophosphate (MP), zidovudine diphosphate (PP), zidovudine triphosphate (TP), famciclovir penciclovir and valaciclovir were purchased from Moravek. Formycin A (FMA) and Formycin B (FMB) were purchased from Berry and Associates. All other reagents were from Sigma unless specified. Long-term infusion of isoproterenol (Sigma, St. Louis, Mo.) was performed for 7 days at a dose of 60 mg/kg/d with or without AC5 inhibitors by using a miniosmotic pump (ALZET model 2001, DURECT Corp, Cupertino, Calif.). Control mice received vehicle in pumps. Pumps were removed 24 hours before biochemical and physiological studies. Experiments were performed in 3- to 5-month-old male C57Bl/6, and in AC5Tg transgenic mice. This study was approved by the Animal Care and Use Committee at New Jersey Medical School.
as §1

Data set [2] has as its system mice, chronic ISO infusion. Briefly: Treadmill exercise tolerance after chronic ISO. Format: in vivo, mouse. The procedure:
Treadmill exercise tolerance was performed as previously described. One week after pump implantation, pumps were removed under anesthesia. The next day after removal, mice were placed on a custom-built four-lane treadmill with an infrared detection system above the shock stimulus at a starting speed of 2 m/min. Every two minutes, the speed was increased by 4 m/min for 16 min or until the mouse could no longer run.

For another data set, the system named is ERK/MEK/Bcl-2 pathway. Briefly: Western blot of hearts after chronic ISO infusion. Format: in vivo, mouse. The procedure:
The activities of MEK1 and ERK1/2 signaling pathway were examined by measuring the phosphorylated and total forms.
Western blotting was conducted with commercially available antibodies, except for type 5 and type 6 AC. Western blotting for type 5 and 6 AC was performed as previously described. Protein expression was quantified by densitometry.

Data set [3] has as its system C57Bl/6 mice motor function. As to the kind of experiment: Rotarod performance test and pole test. Particulars: mouse. Format: in vivo, mouse. How it is done:
In C57Bl/6 mice, Ara-Ade was chronically infused with an osmotic mini-pump at the indicated doses for 5 days. a) Each mouse was placed on a rod subjected to evaluate Rotarod performance. Mice were left for 1 min on the rod for habituation. The rod rotated gradually increasing from 4 to 40 rpm over the course of 5 min, and the time that mice could stay without failing was recorded. Five trials were conducted for each individual 10-25 min apart. As a positive control, 1-methyl 4-phenyl 1,2,3,6-tetrahydropyridine (MPTP) was intraperitoneally injected for the indicated dose for 5 days. *, p<0.01 relative to vehicle. #, p<0.05 relative to vehicle. n=6-7. b) To evaluate bradykinesia, a pole test was performed. Mice were placed head upward on the top of a rough surfaced pole that was wrapped with gauze to prevent slipping. The time until the mouse turned completely downward (open bars, TTURN) and the time until it climbed down to the floor (closed bars, TLA) were measured.
Four days after the implantation, Rotarod performance test and pole test were examined as previously described. For MPTP injection (1-methyl 4-phenyl 1,2,3,6-tetrahydropyridine), mice were injected intraperitoneally (i.p.) with 0.1 mL of PBS or MPTP dissolved in PBS at 24-hour intervals for 5 days. The daily dose of MPTP was 30 mg/kg. […]
A general note: In the rotarod test animals must keep their balance on a rotating rod.

For data set [4] the following is noted: cited from earlier work.
The conditions of data set [5]: administration of 15 mg/kg/day; read-out: plasma Cmax; cited from earlier work.
A further data set concerns the target type 5 AC (Homo sapiens, UniProt O95622). As to the kind of experiment: Double-reciprocal plots of type 5 AC catalytic activity against ATP.
The target in a further data set is AC5 (Mus musculus, UniProt P84309). As to the kind of experiment: Forskolin-stimulated cAMP production in heart membrane preparations from AC5Tg. Particulars: forskolin 50 μM.
AC5, sequence (P84309 whole entry): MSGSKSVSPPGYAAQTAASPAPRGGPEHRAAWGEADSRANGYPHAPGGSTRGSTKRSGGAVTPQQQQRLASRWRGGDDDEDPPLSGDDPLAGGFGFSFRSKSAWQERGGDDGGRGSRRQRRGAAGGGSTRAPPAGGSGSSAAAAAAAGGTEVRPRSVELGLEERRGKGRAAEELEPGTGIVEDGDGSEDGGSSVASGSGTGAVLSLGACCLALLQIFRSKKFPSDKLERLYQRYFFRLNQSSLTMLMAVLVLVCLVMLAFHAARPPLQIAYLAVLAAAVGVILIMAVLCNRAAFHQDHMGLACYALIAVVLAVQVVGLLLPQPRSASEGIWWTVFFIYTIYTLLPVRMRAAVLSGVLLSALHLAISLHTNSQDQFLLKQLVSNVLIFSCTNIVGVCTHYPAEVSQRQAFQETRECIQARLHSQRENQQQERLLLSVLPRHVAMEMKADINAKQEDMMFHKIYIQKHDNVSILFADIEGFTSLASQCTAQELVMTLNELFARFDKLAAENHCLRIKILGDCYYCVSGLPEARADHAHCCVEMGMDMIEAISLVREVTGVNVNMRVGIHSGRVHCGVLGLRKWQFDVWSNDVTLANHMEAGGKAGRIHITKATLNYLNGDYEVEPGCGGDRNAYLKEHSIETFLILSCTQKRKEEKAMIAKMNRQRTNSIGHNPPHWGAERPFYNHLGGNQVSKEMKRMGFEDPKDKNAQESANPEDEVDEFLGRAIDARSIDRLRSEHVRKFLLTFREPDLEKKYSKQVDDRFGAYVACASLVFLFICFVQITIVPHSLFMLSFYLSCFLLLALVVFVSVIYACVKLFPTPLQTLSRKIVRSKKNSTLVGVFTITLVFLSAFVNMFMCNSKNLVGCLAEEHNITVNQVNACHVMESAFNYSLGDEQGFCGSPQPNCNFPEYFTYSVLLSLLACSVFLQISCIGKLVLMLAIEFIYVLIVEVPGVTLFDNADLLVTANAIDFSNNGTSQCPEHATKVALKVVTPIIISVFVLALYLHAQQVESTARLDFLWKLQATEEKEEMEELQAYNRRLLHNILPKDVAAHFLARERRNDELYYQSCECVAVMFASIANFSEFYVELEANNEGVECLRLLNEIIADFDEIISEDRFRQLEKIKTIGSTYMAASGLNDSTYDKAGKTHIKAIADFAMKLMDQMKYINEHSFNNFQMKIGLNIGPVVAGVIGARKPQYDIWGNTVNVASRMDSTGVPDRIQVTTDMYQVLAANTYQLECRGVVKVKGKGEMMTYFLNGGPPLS

Each structure is given as a SMILES string. “Also recorded” adds a separate entry of the source. Like-named read-outs stand apart in the source and are kept apart here.

type 5 AC, sequence (O95622 whole entry): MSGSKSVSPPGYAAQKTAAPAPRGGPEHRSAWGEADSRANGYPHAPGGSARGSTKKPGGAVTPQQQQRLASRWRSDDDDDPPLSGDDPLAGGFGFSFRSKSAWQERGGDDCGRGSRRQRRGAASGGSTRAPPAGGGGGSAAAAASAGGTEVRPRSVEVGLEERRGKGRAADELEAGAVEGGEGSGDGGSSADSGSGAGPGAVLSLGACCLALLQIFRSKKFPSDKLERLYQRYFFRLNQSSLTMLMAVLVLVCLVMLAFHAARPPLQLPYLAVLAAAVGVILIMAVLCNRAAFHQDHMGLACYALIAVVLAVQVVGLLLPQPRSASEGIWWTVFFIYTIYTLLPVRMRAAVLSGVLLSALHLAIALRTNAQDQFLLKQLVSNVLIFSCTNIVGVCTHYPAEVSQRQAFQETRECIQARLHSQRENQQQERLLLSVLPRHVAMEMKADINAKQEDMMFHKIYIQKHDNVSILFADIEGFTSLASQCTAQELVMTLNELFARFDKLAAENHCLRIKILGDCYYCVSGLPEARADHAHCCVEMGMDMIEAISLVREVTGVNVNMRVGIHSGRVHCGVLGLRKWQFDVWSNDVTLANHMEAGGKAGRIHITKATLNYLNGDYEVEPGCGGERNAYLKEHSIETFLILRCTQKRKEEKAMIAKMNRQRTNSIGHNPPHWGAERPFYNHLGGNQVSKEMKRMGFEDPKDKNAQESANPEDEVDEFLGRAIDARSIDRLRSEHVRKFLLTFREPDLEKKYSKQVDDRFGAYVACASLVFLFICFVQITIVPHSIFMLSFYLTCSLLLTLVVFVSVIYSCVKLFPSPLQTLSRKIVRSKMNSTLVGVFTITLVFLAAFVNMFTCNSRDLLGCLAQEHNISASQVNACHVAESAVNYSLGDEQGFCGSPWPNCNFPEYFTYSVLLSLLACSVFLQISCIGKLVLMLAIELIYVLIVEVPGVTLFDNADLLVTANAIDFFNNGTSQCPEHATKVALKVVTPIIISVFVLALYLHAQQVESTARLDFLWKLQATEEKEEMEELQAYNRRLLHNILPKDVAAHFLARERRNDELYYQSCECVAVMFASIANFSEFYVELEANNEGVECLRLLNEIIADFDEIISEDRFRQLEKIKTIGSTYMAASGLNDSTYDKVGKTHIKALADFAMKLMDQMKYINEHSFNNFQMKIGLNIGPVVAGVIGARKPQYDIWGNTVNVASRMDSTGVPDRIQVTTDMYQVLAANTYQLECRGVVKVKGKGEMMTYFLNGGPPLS
Procedure for AC5: (§2) Hearts and striatum were dissected from the mice and membrane preparations were made as previously described. This crude membrane preparation was used in the AC assay. AC activity was measured by a modification of the method of Salomon et al. as previously described. […] Double-reciprocal plots were examined as previously described.
Procedure for cardiac myocytes: Cultured cardiac myocytes were incubated with 100 μM ISO in the presence or absence of AC5 inhibitors at the indicated concentrations for 48 h.
Procedure for type 5 AC: as §2

In general, Cmax refers to the maximum level reached in the sampled fluid or tissue. As for `Nc1ncnc2c1ncn2[C@@H]1O[C@H](CO)[C@@H](O)[C@@H]1O` [Ara-Ade, 9-β-D-arabinofuranosyladenine], the “inhibition of cAMP accumulation in H9C2 cells” value with H9C2 cells is listed as “slight inhibition”. Further, in the data set with cardiac myocytes, the “ISO-induced apoptosis in cultured cardiac myocytes” value is reported as “completely abolished”. In the data set on cardiac myocytes (FIG. 3d), the “effective concentration in inhibiting apoptosis” value stood at 10 µM. In addition, the “inhibition of cAMP production, heart membrane preparation from AC6Tg” value with AC6 was “little inhibitory effect”. In addition, in data set [1] (ISO 60 mg/kg/d 7 days, Ara-Ade 20 and 100 mg/kg/day, 2′5′ ddAdo 20 mg/kg/day), the “ISO-induced decrease in LVEF (and FS)” value is “rescued LVEF and FS reduction”. In [1] (chronic ISO infusion), the ISO-induced cardiac fibrosis entry is recorded as “significantly inhibited”; the “ISO-induced myocardial apoptosis in vivo” value is recorded as “significantly inhibited”; the “ISO-induced wall thickening (DESP, DPW)” value is recorded as “neither Ara-Ade nor 2′5′ ddAdo inhibited”; the “LVW/BW and myocyte cross sectional area” value was “increased”. The “survival rate during 1-week chronic ISO” value in data set [1] (vs vehicle) is recorded as “higher”. For the same compound, in data set [2], the “maximum velocity in the treadmill test” value is on record as “rescued ISO-induced decrease in the maximum velocity”. Besides, in the data set with ERK/MEK/Bcl-2 pathway, the “phosphorylation of Bcl-2” value is “significantly increased”; the “phosphorylation of ERK1/2 and MEK” value was “increased”. In [3], the “BBB-permeability (concluded from motor tests)” value is “little BBB-permeability”. The Cmax in [4] (10 mg/kg, intravenously infusion for 30 min, read-out: Cmax in human) was 4.8 µM. For the same compound, in data set [4] (human, intravenous infusion 10 mg/kg, read-out: plasma Cmax), the Cmax is 4.8 µM. Also, the Cmax in [5] is approximately 10 µM. Moreover, the “mode of inhibition with respect to ATP” value on type 5 AC is “non-competitive; also recorded: un-competitive or non-competitive”. Besides, the “inhibition of cAMP production, heart membrane preparation from AC5Tg” value on AC5 is given as “inhibited cAMP production”.
